Holding throughout (format): physicochemical
The nature of series [1]: Chemical stability of crystalline forms, open-vial storage (content by HPLC, crystalline form by XRPD). As to the method:
Samples of compound 1 in different crystalline forms were stored in open vials under controlled conditions at different temperatures and rel. humidities for 28 days. Prior to storage and after 14 and 28 days the content of compound (1) in the sample was determined via HPLC and the crystalline form was measured via XRPD.

The nature of series [2]: Chemical stability in pharmaceutical compositions (excipient mixtures with 10% compound (1)). The conditions noted are these: listed as B. Here is the method:
To test the chemical stability, i.e. compatibility of different crystalline forms of compound (1), solid multi component mixtures were prepared comprising well established excipients used for solid oral dosage form and having different functions therein. The single components of each mixture were exactly weighed and intensively triturated using a mortar and a pestle.
10 g of the final mixtures were separately filled into glass vials (open or closed) and stored under the conditions outlined below in table 13. Samples were taken and analyzed initially and after 1, 2 and 3 months with respect to the content of compound (1) within the mixtures.

Series [3] is described as follows: Dynamic vapor sorption (DVS), hygroscopicity. Here is the method:
Crystalline forms were characterized by dynamic vapor sorption (DVS) using a Porotec DVS 1000 or a SMS DVS Intrinsic water vapor sorption analyzer. For the DVS analysis, a step width of 10% r.h. was applied allowing the samples to equilibrate and reach weight constancy (±0.002%) for at least 10 min on each step. All measurements were performed according to the following program: 50% r.h.→90% r.h., 90→0% r.h., 0%→90% r.h., 90%→50% r.h. A cycle with increasing humidity is also known as a sorption cycle, a cycle with decreasing humidity is also known as a desorption cycle. The details of the respective DVS measurements are shown below in table 51 and discussed further below.
The hygroscopicity of the respective crystalline forms determined via the DVS measurements was classified according to the ranges for mass increase defined in the European Pharmacopoeia: very hygroscopic (vh): increase of the mass ≧15%; hygroscopic (h): increase of the mass is less than 15% and equal or greater than 2%; slightly hygroscopic (sh): increase of the mass is less than 2% and equal or greater than 0.2%; not hygroscopic (nh): increase of the mass is less than 0.2%; deliquescent (d): sufficient water is absorbed to form a liquid.

Series [4] can be described thus: Stability of crystalline form B on drying at reduced pressure. The conditions noted are these: dried at 50±2° C., about 7 mBar, 72 hours. As to the method:
The samples were let to cool to room temperature under ambient conditions before they were analyzed.

Series [5] can be described thus: Storage of crystalline form C, X-ray diffraction. The conditions noted are these: stored for up to 4 months.

Molecules are shown by their SMILES.

Consider `CN(C)[C@]1(c2cccc(F)c2)CC[C@]2(CC1)c1[nH]c3ccccc3c1CCN2C(=O)/C=C/c1ccccc1` [crystalline form B, cis-(E)-4-(3-Fluorophenyl)-2′,3′,4′,9′-tetrahydro-N,N-dimethyl-2′-(1-oxo-3-phenyl-2-propenyl)-spiro[cyclohexane-1,1′[1H]-pyrido[3,4-b]indol]-4-amine], for which the “Content cmpd (1)” value in series [1] (40° C., 75% r.H., storage 0 d, listed as B) is on record as 84.85%; in series [1] (40° C., 75% r.H., storage 14 d, listed as B), 84.21%; in series [1] (40° C., 75% r.H., storage 28 d, listed as B), 83.74%; in series [1] (50° C., storage 0 d, listed as B) it was 84.85%; in series [1] (50° C., storage 14 d, listed as B), 82.63%; in series [1] (50° C., storage 28 d, listed as B) it was 81.26%. The “content of compound (1) within the mixture” value (shortened to “content of compound”) in series [2] (Lactose monohydrate, PVP25, Crospovidone, Talcum, 40° C., 75% rel. hum., 0 month) amounted to 99.57; in series [2] (Lactose monohydrate, PVP25, Crospovidone, Talcum, 40° C., 75% rel. hum., 1 month) it was 99.22; in series [2] (Lactose monohydrate, PVP25, Crospovidone, Talcum, 40° C., 75% rel. hum., 2 months) it was 99.05; in series [2] (Lactose monohydrate, PVP25, Crospovidone, Talcum, 40° C., 75% rel. hum., 3 months) it was 96.87; in series [2] (Lactose monohydrate, PVP25, Crospovidone, Talcum, 50° C. dry, 0 month), 99.57; in series [2] (Lactose monohydrate, PVP25, Crospovidone, Talcum, 50° C. dry, 1 month), 95.82. Also, the “content of compound” value turned out to be 91.04 in series [2] (Lactose monohydrate, PVP25, Crospovidone, Talcum, 50° C. dry, 2 months); 85.33 in series [2] (Lactose monohydrate, PVP25, Crospovidone, Talcum, 50° C. dry, 3 months); 99.69 in series [2] (Microcrystalline cellulose, HPMC 6 mPas, L-HPC LH21, magnesium stearate, 40° C., 75% rel. hum., 0 month); 99.53 in series [2] (Microcrystalline cellulose, HPMC 6 mPas, L-HPC LH21, magnesium stearate, 40° C., 75% rel. hum., 1 month); 98.57 in series [2] (Microcrystalline cellulose, HPMC 6 mPas, L-HPC LH21, magnesium stearate, 40° C., 75% rel. hum., 2 months); 99.39 in series [2] (Microcrystalline cellulose, HPMC 6 mPas, L-HPC LH21, magnesium stearate, 40° C., 75% rel. hum., 3 months). For the same molecule, the “content of compound” value in series [2] (Microcrystalline cellulose, HPMC 6 mPas, L-HPC LH21, magnesium stearate, 50° C. dry, 0 month) worked out at 99.75; in series [2] (Microcrystalline cellulose, HPMC 6 mPas, L-HPC LH21, magnesium stearate, 50° C. dry, 1 month), 95.74; in series [2] (Microcrystalline cellulose, HPMC 6 mPas, L-HPC LH21, magnesium stearate, 50° C. dry, 2 months) it was 91.45; in series [2] (Microcrystalline cellulose, HPMC 6 mPas, L-HPC LH21, magnesium stearate, 50° C. dry, 3 months), 87.34. Further, the hysteresis in series [3] (between 10% to 40% relative humidity) was > 0.5%. In series [4], the resulting crystalline form is “crystalline form B”.

Turning to `CN(C)[C@]1(c2cccc(F)c2)CC[C@]2(CC1)c1[nH]c3ccccc3c1CCN2C(=O)/C=C/c1ccccc1` [crystalline form C, cis-(E)-4-(3-Fluorophenyl)-2′,3′,4′,9′-tetrahydro-N,N-dimethyl-2′-(1-oxo-3-phenyl-2-propenyl)-spiro[cyclohexane-1,1′[1H]-pyrido[3,4-b]indol]-4-amine], the “Content cmpd (1)” value was found to be 99.67% in series [1] (40° C., 75% r.H., storage 0 d, listed as C); 99.68% in series [1] (40° C., 75% r.H., storage 14 d, listed as C); 99.44% in series [1] (40° C., 75% r.H., storage 28 d, listed as C); 99.67% in series [1] (50° C., storage 0 d, listed as C); 99.57% in series [1] (50° C., storage 14 d, listed as C); 99.20% in series [1] (50° C., storage 28 d, listed as C). Also, in series [3] (desorption cycle from 90 to 0% r.h.), the weight loss entry is reported as “about 6.6%”. Moreover, the change in mass entry in series [3] (sorption cycle from 50% to 90% relative humidity) is recorded as “no major change in mass”. Moreover, the “weight gain at 90%” value in series [3] (subsequent sorption cycle) is reported as “about 2.8%”. Besides, the conversion on storage entry in series [5] is “converted to Polymorph I in three to four months”.

The values are drawn from patent publication US9296749B2, “Crystalline cis-(E)-4-(3-fluorophenyl)-2′,3′,4′,9′-tetrahydro-N,N-dimethyl-2′-(1-oxo-3-phenyl-2-propenyl)-spiro[cyclohexane-1,1′[1H]” (priority 2013, dated 2016).
